The OligoGym collection
“And” between values parts separate entries of the source, which are not always exact repeats. Identical values can stand only once. After the bases stand the sugars from the 5' end (letter, count) and the backbone: PS all phosphorothioate, else s phosphorothioate and o phosphodiester by linkage. Methylation of C is not given here. e = 2'-O-(2-methoxyethyl) (MOE); k = constrained ethyl (cEt); d = 2'-deoxy (DNA)

Biological target: IRF4
Conditions: ASO

Row | Sequence | target mRNA inhibition (MM.1R, 1 µM) | target mRNA inhibition (SK-MEL-28, 4 µM) [%] | further results
1 | AAGCATTTTATCATCC (sugars kkkdddddddddkeke, PS) | 21% |  | 
2 | TATATATGACGACTTA (sugars k3 d10 k3, PS) |  | 20 | 
3 | AGGAAGCACTGGCATC (sugars k3 d10 k3, PS) |  | 57 | 
4 | TCCCATGGTTACTAAT (sugars k3 d10 k3, PS) | -10% |  | 
5 | CTCCAGGGATGGAACA (sugars k3 d10 k3, PS) |  | 19 | 
6 | TGGTTGGCTGGTCTTT (sugars kkdddddddddkdkdk, PS) | 51% |  | 
7 | CGACACGCGCCGCTCG (sugars k3 d10 k3, PS) |  |  | target mRNA inhibition (MM.1R, 0.0625 µM): -6%; target mRNA inhibition (MM.1R, 0.25 µM): -10%; target mRNA inhibition (MM.1R, 4 µM): -13%
8 | CCTGTGCAAAACCAGT (sugars k3 d10 k3, PS) | -10% |  | 
9 | ACTGCTTGAGGTTTTC (sugars k3 d10 k3, PS) |  | 58 | 
10 | CAGGACCCGGCTCCCG (sugars k3 d10 k3, PS) |  | 14 | 
11 | GTGTTTGGTGGGAATC (sugars k3 d10 k3, PS) |  | 46 | 
12 | GGTCAAAAAGATGCAG (sugars k3 d10 k3, PS) |  | 51 | 
13 | AGGAACAAGTGTATCT (sugars k3 d10 k3, PS) |  | 46 | 
14 | TTTTAGTTCATACCCA (sugars k3 d10 k3, PS) |  | 52 | 
15 | AGGGAACAGATAGTTA (sugars k3 d10 k3, PS) |  | 34 | 
16 | CTTTCACTAAAGTCAA (sugars k3 d10 k3, PS) |  | 51 | 
17 | TACTGCTTGAGGTTTT (sugars kkddddddddddkeke, PS) | 11% |  | 
18 | CGGGAATTTCCATTGG (sugars k3 d10 k3, PS) |  | 50 | 
19 | ACTTAAAATCCACACC (sugars k3 d10 k3, PS) |  | 7 | 
20 | GACACTTTTAGAGAGG (sugars kkdddddddddekeke, PS) | 22% |  | 
21 | ACTACCTGCAGCCAAG (sugars k3 d10 k3, PS) | 4% |  | 
22 | AATGGCAGCACCGTGT (sugars k3 d10 k3, PS) | 0% |  | 
23 | CGCCGAAGTCAACAGG (sugars k3 d10 k3, PS) |  | 44 | 
24 | TCAGCTCCACTGTTAA (sugars k3 d10 k3, PS) |  | 73 | 
25 | TTATGCATGTTCCTCA (sugars k3 d10 k3, PS) |  | 57 | 
26 | TGTGATAGCTGAGCTG (sugars kkddddddddddkeke, PS) | 16% |  | 

Row | Sequence | target mRNA inhibition (MM.1R, 1 µM) | target mRNA inhibition (SK-MEL-28, 4 µM) [%] | further results
27 | AGCTGCCACTGGTAAC (sugars k3 d10 k3, PS) | 0% |  | 
28 | GCTAGATAGCATTCTT (sugars k3 d10 k3, PS) |  | 56 | 
29 | AGATAACGAGGTGCCT (sugars k3 d10 k3, PS) |  | 23 | 
30 | TGCCGAGATATAAATA (sugars k3 d10 k3, PS) |  | 23 | 
31 | TCTATAGTGTTCCAGG (sugars kkkddddddddkekek, PS) | 13% |  | 
32 | GCTCCCGACACGCGCC (sugars k3 d10 k3, PS) | 3% and 19% |  | 
33 | GTTTATTTCCTACTCT (sugars k4 d8 k4, PS) |  | 44 | 
34 | GTTGGCACAATTCTCT (sugars k3 d10 k3, PS) | 22% and 16% |  | 
35 | TCCCGACACGCGCCGC (sugars k3 d10 k3, PS) | -12% |  | 
36 | AATGTGTATTACTCTT (sugars kkdddddddddekeke, PS) | 24% and 30% |  | 
37 | GGCCGGCCCGGGCGCA (sugars k3 d10 k3, PS) |  | 1 | 
38 | TGGAGAAGTCCCGTGG (sugars k3 d10 k3, PS) | -9% |  | 
39 | AGCATTTTATCATCCG (sugars kkkdddddddddkeke, PS) | 42% |  | 
40 | TCCTTTAGTGTCGCCA (sugars k3 d10 k3, PS) |  | 76 | 
41 | TCACCTGGCAACCTGC (sugars k4 d8 k4, PS) |  | 28 | 
42 | GCTGATAATTAATCTG (sugars k3 d10 k3, PS) | -9% |  | 
43 | TCAACAGCAGGTTTTG (sugars k3 d10 k3, PS) |  | 41 | 
44 | GCGCGGACGCACGGAG (sugars k3 d10 k3, PS) |  | 2 | 
45 | GATGGAACAGTAACTT (sugars k3 d10 k3, PS) |  | 51 | 
46 | TGCATGAGGGTGACAC (sugars k3 d10 k3, PS) |  | 45 | 
47 | TTTATCATCCGAAAAG (sugars k3 d10 k3, PS) | 7% |  | 
48 | ACTATGGTAGGAGTGT (sugars k3 d10 k3, PS) |  | 25 | 
49 | ATGTGTATTACTCTTA (sugars kkdddddddddkdkdk, PS) | 44% and 32% |  | 
50 | TTTAAAATATCGCCCA (sugars k3 d10 k3, PS) | -1% |  | 
51 | GCACTGGCATTGAGAC (sugars k3 d10 k3, PS) |  | 73 | 
52 | AAGGTTCCTGTCACCT (sugars k4 d8 k4, PS) |  | 14 | 

Row | Sequence | target mRNA inhibition (MM.1R, 1 µM) | target mRNA inhibition (SK-MEL-28, 4 µM) [%] | further results
53 | AATGAACGGAAGTTTA (sugars k3 d10 k3, PS) |  | 33 | 
54 | GACAGCTAAAGAACAC (sugars k3 d10 k3, PS) |  | 19 | 
55 | AAGATACAAAACGGAC (sugars k3 d10 k3, PS) |  | 39 | 
56 | AAAGCATAGAGTCACC (sugars k3 d10 k3, PS) |  | 34 | 
57 | GGGCTGTCCCTAGTGC (sugars k3 d10 k3, PS) |  | -9 | 
58 | CAAATTAAAGAGCGCA (sugars k3 d10 k3, PS) |  | 57 | 
59 | TCATTTACTGTTACCG (sugars k3 d10 k3, PS) | 56% and 40% |  | target mRNA inhibition (MM.1R, 0.0625 µM): 6%; target mRNA inhibition (MM.1R, 0.25 µM): 18%; target mRNA inhibition (MM.1R, 4 µM): 82%
60 | AGACAGTGCGCCCCAA (sugars k3 d10 k3, PS) | -17% |  | 
61 | ATCTATAAGATGTATA (sugars k3 d10 k3, PS) |  | -1 | 
62 | TCCATAGAGCCAGAGC (sugars k3 d10 k3, PS) | 20% |  | 
63 | AGCAAAGAGGGTCACA (sugars k3 d10 k3, PS) |  | 68 | 
64 | TGTTACCGATGCTTCA (sugars kkdddddddddkekek, PS) | 28% and 21% |  | 
65 | GCTCACTAAGCTTGAT (sugars k3 d10 k3, PS) |  | 56 | 
66 | ACTGCTTGAGGTTTTC (sugars kkdddddddddkekek, PS) | 24% |  | 
67 | ACAGTGATCATCAATG (sugars k3 d10 k3, PS) |  | 56 | 
68 | TGATAGGTATACTTAA (sugars k3 d10 k3, PS) |  | 28 | 
69 | GAGATAGGAAGCACTG (sugars k3 d10 k3, PS) |  | 48 | 
70 | ATCCACTGGCACCAAG (sugars k3 d10 k3, PS) | 5% |  | 
71 | GAATGGCGGATAGATC (sugars k3 d10 k3, PS) | -3% |  | 
72 | AAAGGAGGTAGTGGCC (sugars k3 d10 k3, PS) |  | 21 | 
73 | ACACTTTTAGAGAGGA (sugars kkddddddddddkeke, PS) | 14% |  | 
74 | TGCTTGAGGTTTTCCT (sugars e1 k2 d9 k2 e2, PS) | 35% |  | 
75 | TCCCACTGGGCTTTGT (sugars k3 d10 k3, PS) |  | 32 | 
76 | TACTGCTTGAGGTTTT (sugars k3 d10 k3, PS) |  | 50 | 
77 | AAAAAGGTGCAAGCCT (sugars k3 d10 k3, PS) | 6% |  | 
78 | GTAACAACGACACACG (sugars k3 d10 k3, PS) |  | 59 | 
